Source: patent US20050058658A1, “Compositions and methods for immunotherapy of human immunodeficiency virus (HIV)” (priority 2003, published 2005)

Tests used:
[1] = tested on: experimental autoimmune encephalomyelitis (EAE); experiment: Experimental autoimmune encephalomyelitis (EAE) model; format: in vivo, SJL mice; details: 5 mg s.c. daily for 5 days from day 10
Protocol: This hyposthesis was tested in the experimental autoimmune encephalomyelitis (EAE) model in SJL mice. EAE is induced in mice by immunization with spinal cord derived myelin basic protein which induces a disease in the mice which is very similar to multiple schlerosis (MS) in humans.
Treatments were given daily for 5 days. Linomide is a drug that is known to inhibit EAE and is used as a positive control. […] Severity of EAE is measured by means of the EAE score which starts at 0 for normal and increases to a score of 5 when death occurs. For ethical reasons mice are sacrificed when a score of 4 is reached.

[2] = tested on: HIV-1IIIB infected CEM-SS cells; experiment: MTT staining for cell viability, HIV-1 hollow fiber mouse model; format: in vivo
Protocol: (§1) The HIV-1 hollow fiber mouse model was performed (Hollingshead et al., Antiviral Res. 1995, 28:265-279; Buckheit et al., AIDS Res. Hum. Retroviruses 1997, 13:789-796; Xu et al., Bioorg. Med. Chem. Lett. 1999, 9:133-138; Quenelle et al., Antiviral Res. 1997, 35:123-129). In brief, CEM-SS cells were infected with HIV-1IIIB at a multiplicity of infection (MOI) of 0.0002 and sealed in hollow fibers (2×10^5 cells/fiber) immediately prior to implantation in the mice. Cell control hollow fibers (mock infected) and blank fibers (containing tissue culture medium without cells or virus) were prepared in a similar manner. Hollow fibers were implanted in the subcutaneous and intraperitoneal compartments of the mice (three fibers/compartment/mouse). Mice were treated with the E. tenella protein extract once daily (0.1 mL/10 g body weight) on day 0 (immediately prior to implantation of the fibers) and on days 1-6. Cell control, virus control and blank control mice were dosed similarly using 30 mM Hepes. AZT treated mice were also dosed similarly, however, dosing was performed twice daily at a concentration of 150 mg/kg (300 mg/kg/day). On day seven post implantation, the fibers, blood samples and peritoneal wash were collected from the mice. The viability of the infected CEM-SS cells collected from hollow fibers was determined using an MTT dye conversion assay. Viral reverse transcriptase assay and p24 (capsid) antigen quantification were performed on the hollow fiber cultures as well as the blood samples and the peritoneal wash. Of the three fibers collected from each compartment (intraperitoneal and subcutaneous), one fiber was used for analysis of viral reverse transcriptase and p24, while the remaining two fibers used to analyze cell viability by MTT dye reduction. The experimental treatment groups used in the study included the following: • 1. E. tenella protein extract concentration #1 (virus infected fibers; 7 mice) • 2. E. tenella protein extract concentration #2 (virus infected fibers; 7mice) • 3. E. tenella protein extract concentration #3 (virus infected fibers; 7 mice) • 4. AZT; positive control antiviral drug (virus infected fibers; 7 mice) • 5. Virus Control, no drug treatment (treated with vehicle; virus infected fibers; 7 mice) • 6. Cell Control, no drug treatment (treated with vehicle; mock-infected fibers; 7 mice) • 7. Blank Control, no drug treatment (treated with vehicle; “empty” fibers; 2 mice) MTT Staining for Cell Viability:
The viability of cells in the hollow fiber cultures was measured using an MTT dye reduction assay. MTT is a tetrazolium dye that is metabolized by the mitochondria enzymes of metabolically active cells to yield a […] formazan product that can be detected spectrophotometrically. Following collection from the animals, hollow fibers were placed individually into the wells of a 6-well tissue culture plate containing 2 mL of pre-warmed (37° C.) RPMI medium (without phenol red) supplemented with 20% fetal bovine serum. Cells were assayed to viability by adding 180 μL of MTT stock solution (pre-warmed to 37° C.) to each of the wells, followed by incubation for 4 hours at 37° C. in a 5% CO2 atmosphere, removal of medium/MTT solution, and addition of 4 mL of 2.5% Protamine Sulfate (PMS). […] Subsequently, 150 μL of each sample was transferred to a 96 well plate and the optical density of the samples read at 570/650 nm using a Molecular Devices Vmax or SpectraMaxPlus plate reader.

[3] = tested on: HIV-1IIIB infected CEM-SS cells; experiment: Reverse transcriptase assay, HIV-1 hollow fiber mouse model; format: in vivo; details: 150 mg/kg twice daily (300 mg/kg/day), day 7
Protocol: as §1
A microtiter plate-based reverse transcriptase (RT) reaction was utilized (Buckheit et al., AIDS Research and Human Retroviruses 1991, 7:295-302). Tritiated thymidine triphosphate (^3H-TTP 80 Ci/mmol, NEN) was received in 1:1 dH2O: Ethanol at 1 mCi/mL. Poly rA:oligo dT template:primer (Pharmacia) was prepared as a stock solution by combining 150 μL poly rA (20 mg/mL) with 0.5 mL oligo dT (20 units/mL) and 5.35 mL sterile dH2O followed by aliquoting (1.0 mL) and storage at −20° C. The RT reaction buffer was prepared fresh on a daily basis and consisted of 125 μL 1.0 M EGTA, 125 μL dH2O, 125 μL 20% Triton X100, 50 μL 1.0 M Tris (pH 7.4), 50 μL 1.0 M DTT, and 40 μL 1.0 M MgCl2. The final reaction mixture was prepared by combining 1 part ^3H-TTP, 4 parts dH2O, 2.5 parts poly rA:oligo dT stock and 2.5 parts reaction buffer. Ten microliters of this reaction mixture was placed in a round bottom microtiter plate and 15 μL of supernatant resulting from the lysis of cells collected from the fibers (see the section describing the p24 Antigen ELISA above) or serum or peritoneal wash (serum and peritoneal wash samples were clarified by centrifugation without further manipulation prior to analysis) was added and mixed. The plate was incubated at 37° C. for 60 minutes. […]

[4] = tested on: HIV-1IIIB infected CEM-SS cells; experiment: p24 antigen ELISA, HIV-1 hollow fiber mouse model; format: in vivo; details: 150 mg/kg twice daily (300 mg/kg/day), day 7
Protocol: as §1
Following collection of the fibers from the mice, detection of p24 antigen was performed according to the manufacturer's instructions. Individual fibers were cut open and placed in Eppendorf tubes and cells lysed by the addition of 250 μl of lysis buffer (0.02 M Tris-HCl pH 7.5, 0.05 M NaCl, 0.5% Triton X-100), incubation at room temperature for 30 minutes, vortexing, followed by centrifugation at 14,000 rpm for four minutes in a microcentrifuge. Serum and peritoneal wash samples were clarified by centrifugation without further manipulation prior to analysis. All p24 determinations on the resulting supernatants were performed following serial dilution of the samples to ensure absorbances in the linear range of the standard p24 antigen curve. The standard curve is produced using manufacturer-supplied standards and instructions. Data are obtained by spectrophotometric analysis at 450/570 nm using a Molecular Devices Vmax or SpectraMaxPlus plate reader. Final concentrations are calculated from the optical density values using the Molecular Devices SoftMax Pro software package and expressed in pg/ml p24 antigen.

[5] = 150 mg/kg twice daily (300 mg/kg/day), day 7
[6] = 150 mg/kg twice daily (300 mg/kg/day), fibers day 7, optical density 570/650 nm

CN(C(=O)c1c(O)c2ccccc2n(C)c1=O)c1ccccc1 [Linomide]
Day 15 EAE Score ± SD [1]: 0.6 ± 1.3

Cc1cn([C@H]2C[C@H](N=[N+]=[N-])[C@@H](CO)O2)c(=O)[nH]c1=O [AZT, 3′-Azido-3′-deoxythymidine]
MTT Intraperitoneal Fiber, % CPE Reduction, % Value [2, 5]: 0.00%
MTT Subcutaneous Fiber, % CPE Reduction, % Value [2, 5]: 6.83%
MTT Intraperitoneal Fiber, Average [2, 6]: 1.11
MTT Subcutaneous Fiber, Average [2, 6]: 0.96
Effect on cytopathic effect (CPE) of HIV-1IIIB on CEM-SS cells ([2]; hollow fiber cultures, all concentrations tested): did not have an effect on this viral endpoint
Reverse Transcriptase Intraperitoneal Fiber, % Virus Control, % Value [3]: 52.8%
Reverse Transcriptase Intraperitoneal Fiber, Average [3]: 6372 CPM
Reverse Transcriptase Peritoneal Wash, % Virus Control, % Value [3]: 25.7%
Reverse Transcriptase Peritoneal Wash, Average [3]: 392 CPM
Reverse Transcriptase Serum, % Virus Control, % Value [3]: 52.8%
Reverse Transcriptase Serum, Average [3]: 403 CPM
Reverse Transcriptase Subcutaneous Fiber, % Virus Control, % Value [3]: 71.9%
Reverse Transcriptase Subcutaneous Fiber, Average [3]: 10178 CPM
p24 Intraperitoneal Fiber, % Virus Control, % Value [4]: 99.1%
p24 Intraperitoneal Fiber, Average [4]: 215136 pg/mL
p24 Peritoneal Wash, % Virus Control, % Value [4]: 92.8%
p24 Peritoneal Wash, Average [4]: 109 pg/mL
p24 Serum, % Virus Control, % Value [4]: 37.0%
p24 Serum, Average [4]: 18 pg/mL
p24 Subcutaneous Fiber, % Virus Control, % Value [4]: 110.3%
p24 Subcutaneous Fiber, Average [4]: 312334 pg/mL
